Assay [1] concerns the target FPTase (Homo sapiens, UniProt P49354+P49356). The experiment in a line: FPTase inhibition ([3H]FPP transfer to H-Ras). It counts as biochemical. The following applies: 40 μM test compound (unless otherwise indicated). The method, then: (§1) For those assays, the reaction mixtures contained the following components in 50 μl:0.25 μM [^3 H]GGPP (sp. act. 8-10 Ci/mmol), 2.5 μM Ras-CVLL, 50 mM Tris-Cl, pH 7.7, 20 mM KCl, 5 mM MgCl2, 5 μM ZnCl2, 1 mM DTT, 0.5 mM Zwittergent 3-14 and the desired amount of the compound to be tested for inhibitory potential. After pre-equilibrating the assay mixture at 30° C. in the absence of the enzyme, the reaction was initiated by addition of the enzyme (75 ng). Following an about 10 minute incubation at about 30° C., the reactions were terminated by addition of about 0.5 ml of about 4% SDS. About 40 mg of bovine brain membranes was added to the samples to enhance recovery during precipitation. […] Reactions were never allowed to proceed to more than 10% completion based on the limiting substrate. Assays for the inhibition studies of FPTase were performed analogous the GGPTase I inhibition studies, except [^3 H]GGPP was replaced with 0.25 μM of [^3 H]FPP (sp. act. 8-10 ci/mmol) and Ras-CVLL was replaced with 1 μM H-Ras.
(§2) Using the method described above, the GGPTase I and FPTase inhibitory activities of some of the compounds of the present invention were measured. The results of these measurements are provided in Tables I-VI, wherein a value of 100 indicates 100% GGPTase I or FPTase inhibition. Unless otherwise indicated, 40 μM concentration of a test compound is used. The term "alpha" refers to the position of R^1 substituent (e.g., 3,4-dichlorophenyl in Table I) on the nitrogen atom in the pyrazole ring that results in the shortest retention time using the HPLC gradient reported above, where as the term "beta" refers to the position of R^1 substituent (e.g., 3,4-dichlorophenyl in Table I) on the nitrogen atom in the pyrazole ring that results in a longer HPLC retention time than the alphα-regioisomer. Mixtures of regioisomers and/or enantiomers are used unless indicated otherwise using the above alpha and beta notations. The term "N/D" means not determined. In Tables I-VI, R^6 group indicated by *1 refers to {[N"-(1'-oxo-1'-pyrid-3-yl)methyl]-N'-carbamoyl}-3-aminopropyl moiety.

Assay [2] concerns the target T1, GGPTase I (Rattus norvegicus, UniProt P53610+Q04631).
T1 construct: made in house; host or cells: Sf9 insect cells (recombinant baculovirus, co-infection)
The assay can be described thus: GGPTase I inhibition ([3H]GGPP transfer to Ras-CVLL). It counts as biochemical. Conditions: 40 μM test compound (unless otherwise indicated). The method, then:
as §1, §2

The values that follow come from patent US6191147A, “Pyrazole compounds and uses thereof” (PPD Discovery, Inc., priority 1999, dated 2001).

In the case of `CS(=O)(=O)CCC(NC(=O)CCc1cc(-c2cccnc2)n[nH]1)C(N)=O` (centres unmarked), the inhibition at 40 µM in assay [1] amounted to 78%.
Molecule `NC(=O)C(Cc1ccc(O)cc1)NC(=O)CCc1cc(-c2cccnc2)n[nH]1` (centres unmarked) registered an inhibition at 40 µM in assay [2] of 24%.
Turning to `NC(=O)C(Cc1c[nH]c2ccccc12)NC(=O)CCc1cc(-c2cccnc2)n[nH]1` (centres unmarked), the inhibition at 40 µM in assay [1] is 83%; in assay [2], 24%.
Regarding `NC(=O)C(CCCNC(=O)NC(=O)c1cccnc1)NC(=O)CCCCc1cc(-c2cccnc2)n[nH]1` (centres unmarked) [IX, R^6 = *1, R^1 = HYDROGEN], 40 µM produced 57% inhibition in assay [1].
For the molecule `NC(=O)C(Cc1ccccc1)NC(=O)CCCCc1cc(-c2cccnc2)n[nH]1` (centres unmarked) [IX, R^6 = BENZYL, R^1 = HYDROGEN], in assay [2], the inhibition at 40 µM worked out at 27%.
Molecule `NC(=O)CNC(=O)CCCCc1cc(-c2cccnc2)n[nH]1` [IX, R^6 = HYDROGEN, R^1 = HYDROGEN] displayed an inhibition at 40 µM in assay [1] of 58%.
For `CC(C)C(NC(=O)CCCCc1cc(-c2cccnc2)n[nH]1)C(N)=O` (centres unmarked) [IX, R^6 = ISOPROPYL, R^1 = HYDROGEN], the results for the inhibition at 40 µM in assay [1] and in assay [2] were 78% and 33%, respectively.
Regarding `NC(=O)C(CCCNC(=O)NC(=O)c1cccnc1)NC(=O)CCc1cc(-c2cccnc2)n[nH]1` (centres unmarked) [X, R^6 = *1, R^1 = HYDROGEN], the inhibition at 40 µM in assay [1] came out at 50%.
Regarding `CC(C)C(NC(=O)CCc1cc(-c2cccnc2)n[nH]1)C(N)=O` (centres unmarked) [X, R^6 = ISOPROPYL, R^1 = HYDROGEN], in assay [1], 40 µM produced 72% inhibition.

Broadly, the inhibition is the share of the control response that was lost under treatment. A high value points to a response far below the control.
